Experimental data from patent US8461183B2, “PPAR agonist compounds, preparation and uses” (Genfit, priority 2008, dated 2013).

Key:
[1] = target: T1, hPPARγ (Homo sapiens, UniProt P37231); assay: Gal4-hPPARγ chimera transactivation (luciferase) in COS-7 cells; format: cell-based; settings: 24 hours; for EC50: luciferase, read-out: PPARγ EC50; for Emax: relative to maximum activation obtained with rosiglitazone, read-out: PPARγ TOP % (maximum activation)
T1 construct: corresponding to the DEF domains (structural elements of the promoter of the PPARs: D=hinge, EF=ligand fixation domain and AF2 fixation site); expressed in transfected cells; host or cells: COS-7 (monkey kidney fibroblasts)
T1 sequence (P37231 238-503 limits assumed): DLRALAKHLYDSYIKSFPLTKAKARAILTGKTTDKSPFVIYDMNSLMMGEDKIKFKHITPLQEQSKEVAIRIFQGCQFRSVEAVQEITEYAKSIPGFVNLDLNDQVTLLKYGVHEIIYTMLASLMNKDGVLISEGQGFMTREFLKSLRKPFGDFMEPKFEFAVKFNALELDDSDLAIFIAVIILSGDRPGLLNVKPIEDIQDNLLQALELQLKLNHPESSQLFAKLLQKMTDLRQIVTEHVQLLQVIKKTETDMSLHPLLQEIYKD
Method in brief: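 COS-7 cells transfected with Gal4-DBD fused to human PPARγ or PPARδ DEF (hinge/ligand-binding) domain plus Gal4(RE)_TkpGL3 luciferase reporter (1:10).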

[2] = tested on: PPARα target genes (ACO, PDK-4, Apo CIII) in liver; assay: Hepatic expression of PPARα target genes (quantitative RT-PCR) in the ApoE2/E2 mouse; format: in vivo; settings: 10 and 100 mpk, 7 days, normalized to 36B4
Source text: The PPARα agonist properties previously measured in vitro should be translated at the hepatic level by a change in the level of expression of the target genes directly under the control of the PPARα receptor: the genes that were studied in these experiments are those coding for ACO (a key enzyme in the mechanism of β-oxidation of fatty acids), PDK-4 (an enzyme of carbohydrate metabolism) and Apo CIII (apolipoprotein involved in lipid metabolism). This change in gene expression after treatment with the compounds according to the invention is therefore also an indicator of their hypolipemic character.
Apo E2/E2 transgenic mice were kept in a cycle of light and darkness of 12 hours/12 hours at a constant temperature of 20±3° C. After acclimation for one week, the mice were weighed and put into groups of 6 animals selected in such a way that the distribution of their bodyweight and of their plasma lipid values determined first before the experiment are uniform. The compounds tested were suspended in carboxymethylcellulose (Sigma C4888) and administered at the chosen dose by stomach tube, at a rate of once a day for 7 days at the chosen dose. The animals had free access to water and food. At the end of the experiment, the animals were anesthetized after fasting for 4 hours, a blood sample was taken on anticoagulant (EDTA), then the mice were weighed and euthanased. The plasma was separated by centrifugation at 3000 rev/min for 20 minutes, and the samples were stored at +4° C. for the biochemical assays. Samples of liver were taken and frozen immediately in liquid nitrogen and then stored at −80° C. for subsequent analyses.
Total RNA was extracted from fragments of liver using the NucleoSpin® 96 RNA kit (Macherey Nagel, Hoerdt, France) according to the manufacturer's instructions. 1 μg of total RNA (quantified using the Ribogreen RNA quantification kit (Molecular Probes)) was then reverse transcribed to complementary DNA by a reaction of 1 hour at 37° C. in a total volume of 20 μl containing buffer 1× (Sigma), 1.5 mM of DTT, 0.18 mM of dNTPs (Promega), 200 ng of pdN6 (Amersham), 30U of RNase inhibitor (Sigma) and 1 μl of MMLV-RT (Sigma).
The quantitative PCR experiments were performed using the MyiQ Single-Color Real-Time PCR Detection System (Biorad, Marnes-la-Coquette, France) and were carried out using the iQ SYBR Green Supermix kit according to the supplier's recommendations, in 96-well plates, on 5 μl of diluted reverse transcription reaction mixtures, with a hybridization temperature of 55° C. Specific primer pairs of the genes under investigation were used:
The amount of fluorescence emitted is directly proportional to the amount of complementary DNA present at the start of the reaction and amplified during PCR. For each target investigated, a range is prepared by successive dilutions of a pool consisting of a few μl of different reverse transcription reactions. The relative levels of expression of each target are thus determined using the curves of efficacy obtained with the scale points.
The levels of expression of the genes of interest were then normalized relative to the level of expression of the 36B4 reference gene (whose specific primers are: […]
The induction factor, i.e. the ratio of the relative signal (induced by the compound according to the invention) to the mean of the relative values of the control group, was then calculated for each sample. The higher this factor, the more the compound has a character of activation of gene expression. The final result is represented as the mean of the induction values in each experimental group.

Row | Structure (SMILES) | EC50 [1] [µM] | Emax [1] [%] | hepatic expression of gene coding for ACO [2] | hepatic expression of gene coding for ApoCIII [2] | hepatic expression of gene coding for PDK-4 [2]
1 | COc1nc(-c2ccc(C(F)(F)F)cc2)ccc1COc1ccc(OCC(=O)O)cc1 [Cpd 24, 2-(4-((2-methoxy-6-(4-(trifluoromethyl)phenyl)pyridin-3-yl)methoxy)-phenoxy)ethanoic acid] | 4.49 | 65.7 | – | – | –
2 | COc1nc(-c2ccccc2)ccc1CNc1ccc(CCC(=O)O)cc1 [Cpd 19, 3-(4-(((2-methoxy-6-phenylpyridin-3-yl)methyl)amino)phenyl)propanoic acid] | 1.29 | 87 | – | – | –
3 | COc1nc(-c2ccccc2)ccc1CNc1ccc(OCC(=O)O)cc1 [Cpd 4, 2-(4-(((2-methoxy-6-phenylpyridin-3yl)methyl)amino)phenoxy)ethanoic acid] | 17.7 | 70.5 | hepatic overexpression | significant inhibition | hepatic overexpression
4 | COc1nc(-c2ccccc2)ccc1COc1ccc(OCC(=O)O)cc1 [Cpd 2, 2-(4-((2-methoxy-6-phenylpyridin-3-yl)methoxy)phenoxy)ethanoic acid] | 12.4 | 39.1 | hepatic overexpression | significant inhibition | hepatic overexpression
